Assay results as given in US9439878B2, “Use of lumefantrine and related compounds in the treatment of cancer” (priority 2010, dated 2016).

How the values were obtained:
[1] = tested on: Ba/F3 cells expressing T315I mutated BCR-ABL; test: MTT cell viability assay, Ba/F3 cells expressing mutant Bcr-Abl (T315I); format: cell-based, Murine; details: for potency relative to chloroquine (cell viability): chloroquine 25 μM control
Excerpt: (§1) A study conducted through the independent Cancer Therapy & Research Center, Institute for Drug Development at the University of Texas Health Science Center at San Antonio, Tex., evaluated lumefantrine as an autophagy inhibitor (i.e., “Lumefantrine Study”). […] 1; 110(1):313-22. Epub 2007 Mar. 15. PMID: 17363733”. Murine Ba/F3 cells that stably express wild-type BCR-ABL (p210) or the T315I mutated version of BCR-ABL, which confers resistance to imatinib and nilotinib were utilized for this study. Cells were propagated at 37° C. in a humidified atmosphere containing 5% carbon dioxide. Cell viability was determined using the MTT assay. This colorimetric procedure measures conversion of the MTT reagent (a tetrazoleum salt) to formazan by mitochondria. Formazan production was quantified by spectrophotometric measurement at 570 nm and was proportional to viable cell number. Cells were cultured and treated with different concentrations of the agent(s) for 48 hours. Following treatment, 50 μl of MTT was added to each well and allowed to incubate for 1-3 hours at 37° C. Each well was aspirated and 200 μl of DMSO was added to each well to dissolve the formazan. […] Lumefantrine was tested as potential autophagy inhibitor at final concentrations between one to forty micromolar. […] The ER stressor drugs tested and their final concentrations were GleevecTM (imatinib, Novartis, final 350 nM), […] (nilotinib, Novartis, final 35 nM) or ZolinzaTM (suberoylanilide hydroxamic acid, Merck, final 1 μM).

[2] = tested on: Ba/F3 cells expressing wild-type BCR-ABL (p210); test: MTT cell viability assay, Ba/F3 cells expressing wild-type (p210) Bcr-Abl; format: cell-based, Murine; details: for potency relative to chloroquine (cell viability): chloroquine 25 μM control
Excerpt: as §1

Structure (SMILES): CCCCN(CCCC)CC(O)c1cc(Cl)cc2c1-c1ccc(Cl)cc1/C2=C\c1ccc(Cl)cc1 (racemic) [lumefantrine, 2-(dibutylamino)-1-[(9E)-2,7-dichloro-9-(4-chlorobenzylidene)-9H-fluoren-4-yl]ethanol]
- potency relative to chloroquine (cell viability) ([1]; SAHA experiment, Ba/F3 T315I): equipotent with chloroquine
- potency relative to chloroquine (cell viability) ([1]; imatinib experiment, Ba/F3 T315I): equipotent with chloroquine
- cell viability (MTT, OD 570 nm) ([1]; lumefantrine 1-40 micromolar, with and without SAHA 1 μM, 48 hours, Ba/F3 T315I (FIG. 3)): dose-dependent reductions in the cell viability
- potency relative to chloroquine (cell viability) ([1]; nilotinib experiment, Ba/F3 T315I): equipotent with chloroquine
- enhancement of suberoylanilide hydroxamic acid (SAHA) effect on proliferation/viability ([1]; with SAHA 1 μM, 48 hours, Ba/F3 T315I): enhanced the suberoylanilide hydroxamic acid drug response
- augmentation of imatinib effects on cell viability ([1]; with imatinib 350 nM, 48 hours, Ba/F3 T315I (FIG. 5)): the only effects on viability are those generated by lumefantrine alone
- augmentation of nolotinb effects on cell viability ([1]; with nilotinib 35 nM, 48 hours, Ba/F3 T315I (FIG. 7)): the only effects on viability are those generated by lumefantrine alone
- potency relative to chloroquine (cell viability) ([2]; SAHA experiment, Ba/F3 p210): equipotent with chloroquine
- potency relative to chloroquine (cell viability) ([2]; imatinib experiment, Ba/F3 p210): equipotent with chloroquine
- cell viability (MTT, OD 570 nm) ([2]; lumefantrine 1-40 micromolar, with and without SAHA 1 μM, 48 hours, Ba/F3 p210 (FIG. 2)): dose-dependent reductions in the cell viability
- potency relative to chloroquine (cell viability) ([2]; nilotinib experiment, Ba/F3 p210): equipotent with chloroquine
- enhancement of suberoylanilide hydroxamic acid (SAHA) effect on proliferation/viability ([2]; with SAHA 1 μM, 48 hours, Ba/F3 p210): enhanced the suberoylanilide hydroxamic acid drug response
- augmentation of imatinib effects on cell viability ([2]; with imatinib 350 nM, 48 hours, Ba/F3 p210 (FIG. 4)): augments the imatinib effects
- augmentation of nolotinb effects on cell viability ([2]; with nilotinib 35 nM, 48 hours, Ba/F3 p210 (FIG. 6)): augments the nolotinb effects
